Assay results: patent US20090317842A1, “Methods and Tools for The Therapy of Neurodegenerative Pathologies” (EXONHIT THERAPEUTICS SA, priority 2006, published 2009)

Legend:
[1] = test system: cortical neurons; test: Neuroprotection against Aβ25-35 amyloid peptide toxicity in neuronal cultures (MTT test); type: cell-based, Wistar rat; settings: Aβ25-35 33.5 μM
Protocol: Aβ25-35 peptide contains the neurotoxic fragment of the amyloid peptide and is a tool classically used to study the neuroprotective effects of compounds. At the beginning of each experiment, the neuronal cultures aged 7-10 days are changed with fresh culture medium and treated with the etazolate inhibitor compound, six hours before the addition of Aβ25-35 amyloid peptide at a concentration of 33.5 μM In a classical and reproducible manner, this concentration generates 30% to 40% toxicity in neuronal cultures. Several experiments are undertaken to characterize the neuroprotective effect of etazolate. […] In order to determine whether it is the inhibition of sAPPalpha or its production that provides the neuroprotective effect of etazolate against amyloid peptide, a neutralizing anti-sAPPα antibody (3E9 antibody) and alpha secretase inhibitors are respectively used. For the neutralization of sAPPα, 3E9 antibody (5 μg/ml) is added to the cortical cells at the same time as the etazolate. Two alpha secretase inhibitors, the compound Furin Inhibitor […], Sohn J H, Lee […], Mook-Jung I. Furin is an endogenous regulator of alpha-secretase associated APP processing. Biochem Biophys Res Commun. 2006 Oct. 20; 349(2):654-9.) and TAPI (Slack […]. […] Biochem J. 2001 Aug. 1; 357(Pt 3):787-94) are used in pretreatment one hour before the addition of the etazolate. All the treatments are effected at least twice and in at least two different cultures. After an incubation of 48 hours, the toxicity is measured by an MTT test. The results, normalized to the untreated mean, are statistically analyzed by the Wilcoxon test. The significant value is determined at p less than or equal to 0.05. The toxicity is measured by using the MTT test. After incubation with the compounds, MTT is added at a final concentration of 0.5 mg/mL by wells. The plates are then incubated for 30 minutes at 37° C. at night. The medium is drawn off and the crystals are resuspended in 500 μL of DMSO (dimethylsulfoxide). The absorbance at 550 nm is read and the viability percentage is calculated.

[2] = test system: sAPPalpha; test: sAPPalpha production in HEK293 cells over-expressing human APP (ELISA and Western blot); type: cell-based; settings: HEK293 cells stably over-expressing human APP; variable concentrations; 24 hours; FIG. 5
Protocol: HEK293 cells transfected in a stable manner over-expressing human APP were kept in Modified Eagle medium containing Earle salt and supplemented by 10% fetal calf serum (FCS), 2 mM L-glutamine (Sigma, Lyon, France), 1× Nonessential Amino Acids and antibiotics. The cells were treated for 48 hours after spreading variable concentrations of the molecules indicated on 10-cm plates, or with DMSO as a carrier, for 24 hours. The sAPPalpha had been measured by ELISA and Western blot by means of commercially available antibodies.

[3] = test system: sAPPalpha; test: sAPPalpha production in vivo in guinea pig brain (ELISA); settings: 10 mg/kg per os once a day for 15 days; guinea pig cortices; versus excipient; p<1E-4; FIG. 7
Protocol: The production of sAPPalpha was studied in vivo in the guinea pig, a physiological model for APP processing in the brain. The etazolate or the excipient (physiological saline solution) was administered to male Hartley albino guinea pigs, weighing 250-270 g at the beginning of the experiment, once a day for 15 consecutive days, per os in a dose of 10 mg/kg. One h after the last administration, the guinea pigs were sacrificed and the brains immediately extracted, frozen in nitrogen and stored at −80° C. The cortices were homogenized at 4° C. in a pH 7.5 20 mM Tris base solution containing 0.2% Triton X-100, 50 μg/mL, gentamicin and a protease inhibitor cocktail. The soluble sAPPalpha was measured by an ELISA test and the results normalized with regard to the quantity of proteins present in the extracts.

[4] = test system: sAPPalpha; test: sAPPalpha production by cortical neurons (Western blot); type: cell-based, Wistar rat; settings: 0.2 and 2 μM for 24 h; Western blot densitometry; versus non-treated cultures; FIG. 6
Protocol: The production of sAPPalpha was measured in cortical neurons isolated from 17-day-old Wistar rat embryos. The cells are obtained from cortical structures that are dissected into a solution containing 0.25% trypsin. The dissociated cells are seeded at a density of 500,000 per cm^2 in a Neurobasal medium containing additives (1×B27, 2 mM L-glutamine, 0.6% glucose, antibiotics and antimycotics, as well as 2% horse serum) in culture dishes coated with 6 μg/mL, of polyornithine. The cells are kept at 37° C. and 5% CO2. 24 hours after seeding, the cells are treated with 5 μM AraC (5 cytosine arabinofuranoside) as an antimitotic agent. After 4 days in vitro, half the medium is exchanged for medium without horse serum and the culture is kept for maturation in this medium for 7 to 10 days. The sAPPalpha was measured by Western blot by means of antibodies available commercially after one change of medium and accumulation in fresh medium for 24 hours. Quantification was done by densitometric analyses of scanned autoradiographic images. […] The results presented are the mean±SEM of three independent experiments performed in duplicate and are expressed the form of percentage of the control (non-treated cultures).

Row | Molecule | cellular viability ([1]; 0.2 μM etazolate, 48 hours, FIG. 8) [%] | protector effect on neuronal death induced by Aβ25-35 ([1]; co-treatment of neurons, 48 hours, FIG. 8) | sAPPalpha secretion [2] | quantity of sAPPalpha measured in the brains [3] | salting out of sAPPalpha from cortical neurons [4] | effect on the neuroprotection induced by etazolate ([1]; agent added before or with etazolate, cortical neurons, FIGS. 8-10)
1 | CCOC(=O)c1cnc2c(cnn2CC)c1NN=C(C)C [etazolate] | 90 | dose-dependent protector effect | induces sAPPalpha secretion | increase by a factor of three | stimulates the salting out of sAPPalpha | 
2 | TAPI [reference compound] |  |  |  |  |  | inhibited
